{
  "source": "patent US20130177904A1",
  "about": "“ARNT ISOFORM 3 AS A PREDICTOR OF AMINOFLAVONE RESPONSIVENESS IN CANCER CELLS” (UNIVERSITY OF MARYLAND, BALTIMORE, priority 2010, published 2013)",
  "key": {"A496": {"system": "A496", "settings": "A496 renal cell line, NIH dose response data; cited from earlier work"}, "MDA-MB-231": {"system": "MDA-MB-231", "assay": "Cell Death Detection ELISA PLUS apoptosis assay", "type": "cell-based, Human", "settings": "1 μM AF, MDA-MB-231, 24 h or 48 h, FIG. 2A", "method": "(§1) To determine the induction of apoptosis, the Cell Death Detection ELISA^PLUS Assay (Roche Cat. No. 11774425001), which determines the degree of cytoplasmic mono- and oligonucleosomes, was employed as described by the manufacturer. Briefly, breast cancer cells (5,000 cells for MCF-7; 2,000 cells for MDA-MB-231; 15,000 cells for T47D; 15,000 cells for MDA-MB-468; 5,000 cell for Hst578) were plated on 96 well plates and treated the next morning with or without or 1 uM AF for 24 h or 48 h. Cells were then concentrated by centrifugation at 200 g for 10 min at room temperature and the supernatant was discarded. Cells were lysed, and cytoplasmic fractions containing fragmented DNA were transferred to streptavidin-coated microtiter plates preincubated with a biotinylated monoclonal anti-histone antibody. The amount of fragmented nucleosomes bound to anti-histone antibody was evaluated by peroxidase-conjugated monoclonal antibody using ABTS (2,2-azino-di[3-ethylbenzthiazoline sulfonate-6-diammonium salt]) as a substrate, and read in a microplate reader at 405 nm. Non-treated cells were employed as controls."}, "Hst578t": {"system": "Hst578t", "assay": "Cell Death Detection ELISA PLUS apoptosis assay", "type": "cell-based, Human", "settings": "1 μM AF, Hst578t listed as AF insensitive, 24 h or 48 h, FIG. 2A", "method": "as §1"}, "U251": {"system": "U251", "settings": "U251 CNS cancer cell line, NIH dose response data; cited from earlier work"}},
  "data": [
    {"smiles": "Cc1c(F)c(N)c2c(=O)cc(-c3ccc(N)c(F)c3)oc2c1F", "note": "[AF, 5-amino-2-(4-amino-3-fluorophenyl)-6,8-difluoro-7-methylchromen-4-one]", "values": [
      {"measurement": "AF sensitivity", "setting": "A496", "result": "AF sensitive"},
      {"measurement": "increase in cytoplasmic nucleosomes", "setting": "MDA-MB-231", "result": "< 2", "unit": "fold"},
      {"measurement": "increase in cytoplasmic nucleosomes", "setting": "Hst578t", "result": "< 2", "unit": "fold"},
      {"measurement": "AF sensitivity", "setting": "U251", "result": "some degree of sensitivity"}
    ]}
  ]
}
